Patent EP0364941A1, “Branched-chain alkyl esters of 2-(4-(2-piperidino ethoxy)benzoyl)benzoic acid, processes for their preparation and their use as spasmolytic agents” (HOECHST AKTIENGESELLSCHAFT, priority 1988, dated 1990)

System: small intestine
Test: Antispasmodic activity in anaesthetized dog (carbachol or acetylcholine induced intestinal contractions)
Assay type: in vivo
Settings: anaesthetised dog
Description: Male mongrel dogs of weight range 10 to 15 kg were anaesthetised with pentobarbitone sodium (35 mg/ kg,i.v.). Slow i.v. infusion of pentobarbitone (5 mg/kg/hour) was given for maintenance anaesthesia. The endotracheal tube was inserted to facilitate spontaneous breathing. Both femoral artery and vein were cannulated respectively for recording blood pressure and administering drugs. After laparotomy, a small portion of small intestine distal to duodenum was isolated and saline filled balloon inserted and the opening was sutured. A fine polyethylene cannula was then inserted into the mesenteric artery which supplies to the area of intestine containing balloon for injection of carbachol or acetylcholine. A Statham pressure transducer was then attached to balloon cannula for recording both circular and longitudinal muscle contractions. All the parameters were recorded on 4 channel Nihon-Kohden recorder. The intestinal contractions were recorded after administering a standard dose of carbachol or acetylcholine (0.5 to 3 µg). Test compounds I and II were given at different doses 3,10 and 20 mg/kg intra-duodenally and spasmolytic activity was assessed at various time intervals. Anti-spasmodic activity was assessed by calculating percent reduction in agonist induced contractions and also noting onset and duration of activity. The test compounds were dissolved in distilled water (1% soln.). Table 3 Test compounds I and II were given at different doses (10, 30, 100, 300 and 1000 µg/kg) intravenously and spasmolytic activity was assessed at different time intervals. Anti-spasmodic activity was assessed by calculating percent reduction in agonist induced contractions. The ID₅₀ value was calculated from the dose response curve.

Structure (SMILES): CC(C)OC(=O)c1ccccc1C(=O)c1ccc(OCCN2CCCCC2)cc1.Cl [Test Compound II, Isopropyl-2-[4-(2-piperidino-ethoxy)-benzoyl]-benzoate hydrochloride]
- Duration (3 mg/kg intra-duodenal): 35 min
- On-set (3 mg/kg intra-duodenal): 7 min
- Percent Inhibition (3 mg/kg intra-duodenal): 54%
- Duration (10 mg/kg intra-duodenal): 78 min
- On-set (10 mg/kg intra-duodenal): 6.5 min
- Percent Inhibition (10 mg/kg intra-duodenal): 83%
- ED50 (Canis lupus familiaris, iv, read-out: ID₅₀): 0.01 mg/kg
- Duration of action (intravenous administration): > 60 min
